Results from PubChem BioAssay AID328 (DTP/NCI, 2004).
Where “and” joins values, the source holds several entries; their conditions need not be identical. Identical values can stand only once. Toxic doses and inconclusive results are not listed.

System: BDF1 mice, P388 leukemia ip, median survival T/C
Assay: NCI In Vivo Anticancer Drug Screen. Data for tumor model P388 Leukemia (intraperitoneal) in B6D2F1 (BDF1) mice
Conditions: endpoint: median survival time, higher = longer survival
Procedure, shortened: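 Transplantable tumour in mice; compound vs vehicle dosing; survival scored; ratio of treated to control reported.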

[1] = dose: 6.25 mg/kg/injection, schedule: Q01DX009 (ip), vehicle: saline
[2] = dose: 50.0 mg/kg/injection, schedule: Q04DX003 (ip), vehicle: saline with Tween-80
[3] = dose: 100.0 mg/kg/injection, schedule: Q04DX003 (ip), vehicle: saline with Tween-80
[4] = dose: 200.0 mg/kg/injection, schedule: Q04DX003 (ip), vehicle: saline with Tween-80
[5] = dose: 50.0 mg/kg/injection, schedule: Q01DX009 (ip), vehicle: saline with Tween-80
[6] = dose: 100.0 mg/kg/injection, schedule: Q01DX009 (ip), vehicle: saline with Tween-80
[7] = dose: 200.0 mg/kg/injection, schedule: Q01DX009 (ip), vehicle: saline with Tween-80
[8] = dose: 400.0 mg/kg/injection, schedule: Q04DX003 (ip), vehicle: saline with Tween-80
[9] = dose: 50.0 mg/kg/injection, schedule: Q01DX005 (ip), vehicle: saline with Tween-80
[10] = dose: 100.0 mg/kg/injection, schedule: Q01DX005 (ip), vehicle: saline with Tween-80
[11] = dose: 100.0 mg/kg/injection, schedule: Q01DX001 (ip), vehicle: saline with Tween-80

**Q.** How did the T/C (dose: 1.56 mg/kg/injection, schedule: Q01DX009 (ip), vehicle: saline) turn out when CC[n+]1c(-c2ccccc2)c2cc(N)ccc2c2ccc(N)cc21 was run?
**A.** 151 % of control

**Q.** What about the T/C (dose: 3.13 mg/kg/injection, schedule: Q01DX009 (ip), vehicle: saline) of the same molecule?
**A.** 178 % of control

**Q.** And the T/C (dose: 5.0 mg/kg/injection, schedule: Q01DX010 (ip), vehicle: saline)?
**A.** 155 % of control

**Q.** What about the T/C (dose: 5.3 mg/kg/injection, schedule: Q01DX009 (ip), vehicle: saline) of the same molecule?
**A.** 208 % of control

**Q.** What about the T/C [1] of the same molecule?
**A.** 163 % of control

**Q.** What about the T/C (dose: 6.25 mg/kg/injection, schedule: Q01DX009 (ip), vehicle: water) of the same molecule?
**A.** 163 % of control

**Q.** What about the T/C (dose: 8.0 mg/kg/injection, schedule: Q01DX009 (ip), vehicle: saline) of the same molecule?
**A.** 198 % of control and 222 % of control

**Q.** And the T/C (dose: 12.0 mg/kg/injection, schedule: Q01DX009 (ip), vehicle: saline)?
**A.** 227 % of control and 196 % of control

**Q.** And the T/C (dose: 12.5 mg/kg/injection, schedule: Q01DX009 (ip), vehicle: saline with Tween-80)?
**A.** 113 % of control

**Q.** What about the T/C (dose: 12.5 mg/kg/injection, schedule: Q01DX009 (ip), vehicle: water) of the same molecule?
**A.** 113 % of control

**Q.** What about the T/C (dose: 20.0 mg/kg/injection, schedule: Q01DX010 (ip), vehicle: saline) of the same molecule?
**A.** 114 % of control and 120 % of control

**Q.** What about the T/C (dose: 27.0 mg/kg/injection, schedule: Q01DX009 (ip), vehicle: saline) of the same molecule?
**A.** 97 % of control

**Q.** For CCCCCCCCCCCC(c1ccccc1)[N+](C)(C)C (centres undefined), which T/C (dose: 1.0 mg/kg/injection, schedule: Q01DX010 (ip), vehicle: saline) is on record?
**A.** 100 % of control

**Q.** What about the T/C (dose: 2.0 mg/kg/injection, schedule: Q01DX010 (ip), vehicle: saline) of the same molecule?
**A.** 104 % of control

**Q.** And the T/C (dose: 4.0 mg/kg/injection, schedule: Q01DX010 (ip), vehicle: saline)?
**A.** 116 % of control

**Q.** What about the T/C (dose: 4.0 mg/kg/injection, schedule: Q04DX003 (ip), vehicle: saline) of the same molecule?
**A.** 113 % of control

**Q.** What about the T/C (dose: 8.0 mg/kg/injection, schedule: Q04DX003 (ip), vehicle: saline) of the same molecule?
**A.** 118 % of control

**Q.** And the T/C (dose: 16.0 mg/kg/injection, schedule: Q04DX003 (ip), vehicle: saline)?
**A.** 100 % of control

**Q.** CCCN(CCC)CCCC#N was tested. Which T/C [2] did it give?
**A.** 100 % of control

**Q.** And the T/C [3]?
**A.** 100 % of control

**Q.** What about the T/C [4] of the same molecule?
**A.** 100 % of control

**Q.** What does the source list for O=C(Cl)c1ccc(N2C(=O)c3ccccc3C2=O)cc1[N+](=O)[O-]?
**A.** T/C [5]: 118 % of control; T/C [2]: 96 % of control; T/C [6]: 121 % of control; T/C [3]: 102 % of control; T/C [7]: 115 % of control; T/C [4]: 100 % of control; T/C (dose: 400.0 mg/kg/injection, schedule: Q01DX009 (ip), vehicle: saline with Tween-80): 101 % of control; T/C [8]: 105 % of control

**Q.** For Nc1ccc(N2N=C(N3CCCC3)CC2=O)cc1, which T/C [9] is on record?
**A.** 89 % of control

**Q.** And the T/C [10]?
**A.** 89 % of control

**Q.** What about the T/C (dose: 200.0 mg/kg/injection, schedule: Q01DX005 (ip), vehicle: saline with Tween-80) of the same molecule?
**A.** 103 % of control

**Q.** Which T/C (dose: 25.0 mg/kg/injection, schedule: Q01DX001 (ip), vehicle: saline with Tween-80) does the source give for CC[C@@H]1C[C@H]2CC3c4[nH]c5ccc(O)cc5c4CCN(C2)C31 here?
**A.** 106 % of control

**Q.** What about the T/C (dose: 50.0 mg/kg/injection, schedule: Q01DX001 (ip), vehicle: saline with Tween-80) of the same molecule?
**A.** 104 % of control

**Q.** And the T/C [11]?
**A.** 108 % of control

**Q.** What does the source list for COCC1CCSC1=O (centres undefined)?
**A.** T/C [11]: 102 % of control; T/C (dose: 200.0 mg/kg/injection, schedule: Q01DX001 (ip), vehicle: saline with Tween-80): 102 % of control; T/C (dose: 400.0 mg/kg/injection, schedule: Q01DX001 (ip), vehicle: saline with Tween-80): 93 % of control

**Q.** With O=C(O)CC(SC(c1ccccc1)(c1ccccc1)c1ccccc1)C(=O)O (centres undefined) as the molecule, how does the T/C (dose: 50.0 mg/kg/injection, schedule: Q04DX003 (ip), vehicle: Klucel (hydroxypropylcellulose) (HPC)) read?
**A.** 86 % of control

**Q.** And the T/C (dose: 100.0 mg/kg/injection, schedule: Q04DX003 (ip), vehicle: Klucel (hydroxypropylcellulose) (HPC))?
**A.** 86 % of control

**Q.** And the T/C (dose: 200.0 mg/kg/injection, schedule: Q04DX003 (ip), vehicle: Klucel (hydroxypropylcellulose) (HPC))?
**A.** 95 % of control

**Q.** For COc1ccc2c(c1)C(Cc1ccc(Oc3ccc(CC4c5cc(OC)ccc5CC[N+]4(C)C)cc3)cc1)[N+](C)(C)CC2 (centres undefined), which T/C (dose: 0.1 mg/kg/injection, schedule: Q04DX003 (ip), vehicle: saline) is on record?
**A.** 104 % of control

**Q.** And the T/C (dose: 0.2 mg/kg/injection, schedule: Q04DX003 (ip), vehicle: saline)?
**A.** 100 % of control

**Q.** What about the T/C (dose: 0.39 mg/kg/injection, schedule: Q04DX003 (ip), vehicle: saline with Tween-80) of the same molecule?
**A.** 93 % of control

**Q.** And the T/C (dose: 0.4 mg/kg/injection, schedule: Q04DX003 (ip), vehicle: saline)?
**A.** 96 % of control

**Q.** What does the source list for CCS(=O)(=O)OC1CCCCCCC1NC(=O)c1ccccc1 (centres undefined)?
**A.** T/C (dose: 25.0 mg/kg/injection, schedule: Q01DX009 (ip), vehicle: saline with Tween-80): 95 % of control; T/C [5]: 109 % of control; T/C [6]: 104 % of control

**Q.** COC(=O)C(Br)C(OC)c1ccc(Cl)cc1 (centres undefined) was tested. Which T/C [3] did it give?
**A.** 109 % of control

**Q.** And the T/C [4]?
**A.** 109 % of control

**Q.** And the T/C [8]?
**A.** 118 % of control

**Q.** With O=C(O)CCN1CCCc2ccccc21 as the molecule, how does the T/C (dose: 50.0 mg/kg/injection, schedule: Q01DX009 (ip), vehicle: other) read?
**A.** 95 % of control

**Q.** And the T/C (dose: 100.0 mg/kg/injection, schedule: Q01DX009 (ip), vehicle: other)?
**A.** 104 % of control

**Q.** What about the T/C (dose: 200.0 mg/kg/injection, schedule: Q01DX009 (ip), vehicle: other) of the same molecule?
**A.** 95 % of control

**Q.** How did the T/C (dose: 0.15 mg/kg/injection, schedule: Q04DX003 (ip), vehicle: saline) turn out when O=NN(CCF)C(=O)NC1CCS(=O)(=O)CC1 was run?
**A.** 115 % of control

**Q.** And the T/C (dose: 0.3 mg/kg/injection, schedule: Q04DX003 (ip), vehicle: saline)?
**A.** 120 % of control

**Q.** What does the source list for COc1ccccc1NC(=O)N(CCCl)N=O?
**A.** T/C (dose: 0.1 mg/kg/injection, schedule: Q04DX003 (ip), vehicle: saline with Tween-80): 110 % of control; T/C (dose: 0.2 mg/kg/injection, schedule: Q04DX003 (ip), vehicle: saline with Tween-80): 100 % of control; T/C (dose: 0.4 mg/kg/injection, schedule: Q04DX003 (ip), vehicle: saline with Tween-80): 105 % of control; T/C (dose: 0.8 mg/kg/injection, schedule: Q04DX003 (ip), vehicle: saline with Tween-80): 110 % of control

**Q.** What does the source list for CC1=CC(=O)[C@@H](O)[C@]2(C)[C@H]3[C@@]4(O)OC[C@]35[C@H]([C@@H](C)[C@H]4O)[C@@H](O)C(=O)O[C@@H]5C[C@@H]12?
**A.** T/C (dose: 1.0 mg/kg/injection, schedule: Q01DX010 (ip), vehicle: steriod suspending solution): 150 % of control; T/C (dose: 1.5 mg/kg/injection, schedule: Q01DX010 (ip), vehicle: acetone): 100 % of control; T/C (dose: 2.0 mg/kg/injection, schedule: Q01DX010 (ip), vehicle: steriod suspending solution): 107 % of control; T/C (dose: 3.0 mg/kg/injection, schedule: Q01DX010 (ip), vehicle: acetone): 103 % of control; T/C (dose: 4.0 mg/kg/injection, schedule: Q01DX010 (ip), vehicle: steriod suspending solution): 107 % of control; T/C (dose: 6.0 mg/kg/injection, schedule: Q01DX010 (ip), vehicle: acetone): 115 % of control; T/C (dose: 8.0 mg/kg/injection, schedule: Q01DX010 (ip), vehicle: steriod suspending solution): 150 % of control; T/C (dose: 12.0 mg/kg/injection, schedule: Q01DX010 (ip), vehicle: acetone): 123 % of control

**Q.** How did the T/C [9] turn out when CC1(C)O[C@]2(C)CC[C@@H]1[C@H](O)[C@@H]2N1CCCC1 was run?
**A.** 111 % of control

**Q.** What about the T/C [10] of the same molecule?
**A.** 104 % of control

**Q.** For Nc1ccc(C(=O)O)cn1, which T/C (dose: 20.0 mg/kg/injection, schedule: Q01DX009 (ip), vehicle: saline) is on record?
**A.** 105 % of control

**Q.** And the T/C (dose: 40.0 mg/kg/injection, schedule: Q01DX009 (ip), vehicle: saline)?
**A.** 98 % of control

**Q.** And the T/C (dose: 80.0 mg/kg/injection, schedule: Q01DX009 (ip), vehicle: saline)?
**A.** 110 % of control

**Q.** CN(C)c1ccc(C=Nc2ccc(/C=C\c3ccnc4ccccc34)cc2)cc1 was tested. Which T/C [5] did it give?
**A.** 107 % of control

**Q.** And the T/C [6]?
**A.** 117 % of control

**Q.** What about the T/C [7] of the same molecule?
**A.** 100 % of control

**Q.** What does the source list for CC([OH2+])CNCCN.CC([OH2+])CNCCN.O=S(=O)([O-])[O-].[Cu+2] (centres undefined)?
**A.** T/C [1]: 101 % of control; T/C (dose: 12.5 mg/kg/injection, schedule: Q01DX009 (ip), vehicle: saline): 91 % of control; T/C (dose: 25.0 mg/kg/injection, schedule: Q01DX009 (ip), vehicle: saline): 94 % of control
